Laboratory results as given in PubChem BioAssay (NCI).
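Five compound concentrations were applied to cells in 96-well plates for 48 hours; endpoints were derived by simple linear interpolation of the resulting dose-response curve. The concentration for 50% growth inhibition is given as GI50. The concentration for full growth arrest is given as TGI.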

Legend:
Experiment in all cases: NCI anticancer screen, dose series, 48 h
[1] = tested on: HL-60(TB) leukemia
[2] = tested on: OVCAR-5 ovarian
[3] = tested on: UACC-257 melanoma
[4] = tested on: EKVX NSCLC
[5] = tested on: 786-0 renal
[6] = tested on: DLD-1 colon
[7] = tested on: A549 NSCLC
[8] = tested on: SK-MEL-5 melanoma
[9] = tested on: DMS 273 small cell lung
[10] = tested on: UACC-62 melanoma
[11] = tested on: HT29 colon
[12] = tested on: OVCAR-3 ovarian
[13] = tested on: HOP-92 NSCLC
[14] = tested on: HCC-2998 colon
[15] = tested on: DMS 114 small cell lung
[16] = tested on: HCT-15 colon
[17] = tested on: HCT-116 colon
[18] = tested on: NCI-H522 lung
[19] = tested on: M19-MEL melanoma
[20] = tested on: LXFL 529 NSCLC
[21] = tested on: SNB-19 CNS
[22] = tested on: CCRF-CEM leukemia
[23] = tested on: SK-OV-3 ovarian
[24] = tested on: SW-620 colon
[25] = tested on: IGROV1 ovarian
[26] = tested on: NCI-H23 lung
[27] = tested on: TK-10 renal
[28] = tested on: MOLT-4 leukemia
[29] = tested on: A498 renal
[30] = tested on: K-562 leukemia
[31] = tested on: OVCAR-4 ovarian
[32] = tested on: KM12 colon
[33] = tested on: SF-295 CNS
[34] = tested on: HOP-62 NSCLC
[35] = tested on: NCI-H460 lung
[36] = tested on: SNB-75 CNS
[37] = tested on: OVCAR-8 ovarian
[38] = tested on: MALME-3M melanoma
[39] = tested on: COLO 205 colon
[40] = tested on: SF-268 CNS
[41] = tested on: M14 melanoma
[42] = tested on: UO-31 renal
[43] = tested on: ACHN renal
[44] = tested on: U251 CNS
[45] = tested on: SN12C renal
[46] = tested on: SK-MEL-28 melanoma
[47] = tested on: SF-539 CNS
[48] = tested on: SK-MEL-2 melanoma
[49] = tested on: RPMI-8226 leukemia
[50] = tested on: CAKI-1 renal
[51] = tested on: KM20L2 colon
[52] = tested on: LOX IMVI melanoma
[53] = tested on: NCI-H226 lung
[54] = tested on: SNB-78 CNS
[55] = tested on: HOP-18 NSCLC
[56] = tested on: XF 498 CNS
[57] = tested on: RXF 393 renal

Q: `[Cl-].[O-]/N=C(\c1ccccc1)c1ccccn1.[O-]/N=C(\c1ccccc1)c1ccccn1.[O-]/N=C(\c1ccccc1)c1ccccn1.[Sm+3]` was tested. Which GI50 [1] did it give?
A: 20.1 µM

Q: What about the TGI [1] of the same molecule?
A: 62.1 µM

Q: What about the GI50 [2] of the same molecule?
A: 53.9 µM

Q: And the TGI [2]?
A: > 100 µM

Q: What about the GI50 [3] of the same molecule?
A: 23.8 µM

Q: And the TGI [3]?
A: 73.6 µM

Q: And the GI50 [4]?
A: 29.4 µM

Q: What about the TGI [4] of the same molecule?
A: > 100 µM

Q: And the GI50 [5]?
A: 24.1 µM

Q: And the TGI [5]?
A: 65.5 µM

Q: And the GI50 [6]?
A: 33 µM

Q: And the TGI [6]?
A: > 100 µM

Q: And the GI50 [7]?
A: 35.8 µM

Q: And the TGI [7]?
A: > 100 µM

Q: And the GI50 [8]?
A: 20.5 µM

Q: What about the TGI [8] of the same molecule?
A: 47 µM

Q: What about the GI50 [9] of the same molecule?
A: 28.7 µM

Q: What about the TGI [9] of the same molecule?
A: 95.1 µM

Q: What about the GI50 [10] of the same molecule?
A: 26.2 µM

Q: And the TGI [10]?
A: 78.7 µM

Q: And the GI50 [11]?
A: 44 µM

Q: What about the TGI [11] of the same molecule?
A: > 100 µM

Q: And the GI50 [12]?
A: 18 µM

Q: And the TGI [12]?
A: 73.7 µM

Q: And the GI50 [13]?
A: 23.6 µM

Q: What about the TGI [13] of the same molecule?
A: 87.8 µM

Q: What about the GI50 [14] of the same molecule?
A: 25.7 µM

Q: And the TGI [14]?
A: > 100 µM

Q: What about the GI50 [15] of the same molecule?
A: 23 µM

Q: What about the TGI [15] of the same molecule?
A: 72 µM

Q: What about the GI50 [16] of the same molecule?
A: 32.4 µM

Q: What about the TGI [16] of the same molecule?
A: > 100 µM

Q: What about the GI50 [17] of the same molecule?
A: 41.2 µM

Q: And the TGI [17]?
A: > 100 µM

Q: What about the GI50 [18] of the same molecule?
A: 24.6 µM

Q: And the TGI [18]?
A: 75.3 µM

Q: And the GI50 [19]?
A: 21.2 µM

Q: And the TGI [19]?
A: 45.7 µM

Q: And the GI50 [20]?
A: 41.4 µM

Q: And the TGI [20]?
A: > 100 µM

Q: What about the GI50 [21] of the same molecule?
A: 36 µM

Q: What about the TGI [21] of the same molecule?
A: > 100 µM

Q: And the GI50 [22]?
A: 26.6 µM

Q: What about the TGI [22] of the same molecule?
A: 98.8 µM

Q: What about the GI50 [23] of the same molecule?
A: 32.6 µM

Q: What about the TGI [23] of the same molecule?
A: > 100 µM

Q: And the GI50 [24]?
A: 34.5 µM

Q: And the TGI [24]?
A: > 100 µM

Q: What about the GI50 [25] of the same molecule?
A: 27.8 µM

Q: What about the TGI [25] of the same molecule?
A: 79.6 µM

Q: And the GI50 [26]?
A: 32.8 µM

Q: And the TGI [26]?
A: 87.1 µM

Q: What about the GI50 [27] of the same molecule?
A: 24.5 µM

Q: What about the TGI [27] of the same molecule?
A: > 100 µM

Q: What about the GI50 [28] of the same molecule?
A: 29.1 µM

Q: And the TGI [28]?
A: > 100 µM

Q: And the GI50 [29]?
A: 58.3 µM

Q: What about the TGI [29] of the same molecule?
A: > 100 µM

Q: And the GI50 [30]?
A: 32.6 µM

Q: What about the TGI [30] of the same molecule?
A: > 100 µM

Q: What about the GI50 [31] of the same molecule?
A: 43.3 µM

Q: What about the TGI [31] of the same molecule?
A: > 100 µM

Q: And the GI50 [32]?
A: 17.6 µM

Q: What about the TGI [32] of the same molecule?
A: > 100 µM

Q: What about the GI50 [33] of the same molecule?
A: 18.7 µM

Q: What about the TGI [33] of the same molecule?
A: 79.9 µM

Q: And the GI50 [34]?
A: 28 µM

Q: What about the TGI [34] of the same molecule?
A: > 100 µM

Q: What about the GI50 [35] of the same molecule?
A: 27.3 µM

Q: What about the TGI [35] of the same molecule?
A: > 100 µM

Q: What about the GI50 [36] of the same molecule?
A: 4.49 µM

Q: What about the TGI [36] of the same molecule?
A: 31.3 µM

Q: What about the GI50 [37] of the same molecule?
A: 29.8 µM

Q: What about the TGI [37] of the same molecule?
A: > 100 µM

Q: And the GI50 [38]?
A: 24.6 µM

Q: What about the TGI [38] of the same molecule?
A: 88.6 µM

Q: What about the GI50 [39] of the same molecule?
A: 31.3 µM

Q: And the TGI [39]?
A: > 100 µM

Q: And the GI50 [40]?
A: 30 µM

Q: What about the TGI [40] of the same molecule?
A: 87.3 µM

Q: What about the GI50 [41] of the same molecule?
A: 19.6 µM

Q: And the TGI [41]?
A: 40.6 µM

Q: And the GI50 [42]?
A: 18.7 µM

Q: And the TGI [42]?
A: 55.5 µM

Q: And the GI50 [43]?
A: 29.3 µM

Q: What about the TGI [43] of the same molecule?
A: > 100 µM

Q: And the GI50 [44]?
A: 38 µM

Q: What about the TGI [44] of the same molecule?
A: > 100 µM

Q: And the GI50 [45]?
A: 33.1 µM

Q: What about the TGI [45] of the same molecule?
A: > 100 µM

Q: And the GI50 [46]?
A: 30.5 µM

Q: What about the TGI [46] of the same molecule?
A: 94.8 µM

Q: And the GI50 [47]?
A: 28.1 µM

Q: And the TGI [47]?
A: 75.2 µM

Q: What about the GI50 [48] of the same molecule?
A: 22 µM

Q: And the TGI [48]?
A: 52.8 µM

Q: And the GI50 [49]?
A: 47.4 µM

Q: And the TGI [49]?
A: > 100 µM

Q: What about the GI50 [50] of the same molecule?
A: 27.1 µM

Q: What about the TGI [50] of the same molecule?
A: 89.5 µM

Q: What about the GI50 [51] of the same molecule?
A: 40.1 µM

Q: And the TGI [51]?
A: > 100 µM

Q: And the GI50 [52]?
A: 22.4 µM

Q: And the TGI [52]?
A: 53.3 µM

Q: What about the GI50 [53] of the same molecule?
A: 24.1 µM

Q: And the TGI [53]?
A: 62.5 µM

Q: With `Cc1ccc(NC(=O)C2C(=O)N(c3ccc(C)cc3)C(=O)/C2=N\NC(N)=S)cc1` (centres undefined) as the molecule, how does the TGI [2] read?
A: > 100 µM

Q: What about the TGI [3] of the same molecule?
A: > 100 µM

Q: What about the TGI [4] of the same molecule?
A: > 100 µM

Q: What about the TGI [5] of the same molecule?
A: > 100 µM

Q: And the TGI [8]?
A: > 100 µM

Q: What about the TGI [9] of the same molecule?
A: > 100 µM

Q: And the TGI [10]?
A: > 100 µM

Q: And the TGI [11]?
A: > 100 µM

Q: And the TGI [12]?
A: > 100 µM

Q: What about the TGI [13] of the same molecule?
A: > 100 µM

Q: And the TGI [14]?
A: > 100 µM

Q: And the TGI [15]?
A: > 100 µM

Q: What about the TGI [16] of the same molecule?
A: > 100 µM

Q: What about the TGI [17] of the same molecule?
A: > 100 µM

Q: What about the TGI [18] of the same molecule?
A: > 100 µM

Q: And the TGI [19]?
A: > 100 µM

Q: And the TGI [20]?
A: > 100 µM

Q: And the TGI [21]?
A: > 100 µM

Q: What about the TGI [23] of the same molecule?
A: > 100 µM

Q: And the TGI [24]?
A: > 100 µM

Q: And the TGI [25]?
A: > 100 µM

Q: And the TGI [26]?
A: > 100 µM

Q: What about the TGI [27] of the same molecule?
A: > 100 µM

Q: What about the TGI [28] of the same molecule?
A: > 100 µM

Q: What about the TGI [54] of the same molecule?
A: > 100 µM

Q: And the TGI [29]?
A: > 100 µM

Q: And the TGI [30]?
A: > 100 µM

Q: What about the TGI [31] of the same molecule?
A: > 100 µM

Q: And the TGI [32]?
A: > 100 µM

Q: What about the TGI [33] of the same molecule?
A: > 100 µM

Q: And the TGI [34]?
A: > 100 µM

Q: And the TGI [35]?
A: > 100 µM

Q: What about the TGI [36] of the same molecule?
A: > 100 µM

Q: And the TGI [55]?
A: > 100 µM

Q: What about the TGI [37] of the same molecule?
A: > 100 µM

Q: And the TGI [38]?
A: > 100 µM

Q: And the TGI [39]?
A: > 100 µM

Q: What about the TGI [40] of the same molecule?
A: > 100 µM

Q: And the TGI [41]?
A: > 100 µM

Q: And the TGI [42]?
A: > 100 µM

Q: And the TGI [43]?
A: > 100 µM

Q: And the TGI [56]?
A: > 100 µM

Q: What about the TGI [44] of the same molecule?
A: > 100 µM

Q: What about the TGI [45] of the same molecule?
A: > 100 µM

Q: And the TGI [46]?
A: > 100 µM

Q: What about the TGI [47] of the same molecule?
A: > 100 µM

Q: And the TGI [48]?
A: > 100 µM

Q: And the TGI [49]?
A: > 100 µM

Q: And the TGI [50]?
A: > 100 µM

Q: What about the TGI [51] of the same molecule?
A: > 100 µM

Q: And the TGI [52]?
A: > 100 µM

Q: What about the TGI [53] of the same molecule?
A: > 100 µM

Q: What about the TGI [57] of the same molecule?
A: > 100 µM
